Data from paper PMC8284453 (Antimicrobial Agents and Chemotherapy, 2021).
≈ marks a conversion by molar mass, not a printed value. Where two headings read alike, the source gives them in different places.

Columns and labels:
[1] = tested on: isogenic strains of E. coli expressing Ambler class A, B, C, and D enzymes; experiment: microbe, parasite or virus in culture; assay type: cell-based, Escherichia coli; conditions: Escherichia coli, read-out: Vector control MIC
[2] = tested on: Enterobacterales expressing class A carbapenemases (KPC); experiment: organism not typed; assay type: cell-based, K. pneumoniae, E. coli, E. cloacae, Klebsiella oxytoca
[3] = tested on: Enterobacterales expressing class D oxacillinases (OXA-48/48-like); experiment: organism not typed; assay type: cell-based, E. coli, K. pneumoniae
[4] = tested on: Enterobacterales expressing class C cephalosporinases
[5] = tested on: strains of Enterobacterales expressing serine β-lactamases; experiment: organism not typed; assay type: cell-based
[6] = 25 isolates, BLI fixed at 4 μg/ml, AMC 2:1

## CC1(C)S[C@@H]2[C@H](NC(=O)[C@H](N)c3ccc(O)cc3)C(=O)N2[C@H]1C(=O)O [AMX, amoxicillin]
[1]
  MIC: 8 µg/mL (≈ 21.9 µM)
[2]; E. cloacae 847429 (KPC)
  MIC: ≥ 64 µg/mL
[2]; E. cloacae OIMGH49 (p99 AmpC, ACT-2, KPC-2, TEM-1)
  MIC: ≥ 64 µg/mL
[2]; E. coli 786978 (KPC)
  MIC: ≥ 64 µg/mL
[2]; K. pneumoniae 845661 (KPC)
  MIC: ≥ 64 µg/mL
[2]; K. pneumoniae 845662 (KPC)
  MIC: ≥ 64 µg/mL
[2]; K. pneumoniae 845665 (KPC)
  MIC: ≥ 64 µg/mL
[2]; K. pneumoniae 845667 (KPC)
  MIC: ≥ 64 µg/mL
[2]; K. pneumoniae 845670 (KPC)
  MIC: ≥ 64 µg/mL
[2]; K. pneumoniae 845904 (KPC)
  MIC: ≥ 64 µg/mL
[2]; K. pneumoniae 847204 (KPC)
  MIC: ≥ 64 µg/mL
[2]; K. pneumoniae 847375 (KPC)
  MIC: ≥ 64 µg/mL
[2]; K. pneumoniae 847387 (KPC)
  MIC: ≥ 64 µg/mL
[3]; [6]
  MIC50: ≥ 256 µg/mL
  MIC90: ≥ 256 µg/mL
  MIC range: ≥ 256 µg/mL
[3]; E. coli 664507 (OXA-48)
  MIC: ≥ 256 µg/mL
[3]; E. coli 664516 (OXA-48)
  MIC: ≥ 256 µg/mL
[3]; E. coli 664520 (OXA-48)
  MIC: ≥ 256 µg/mL
[3]; E. coli 664522 (OXA-48)
  MIC: ≥ 256 µg/mL
[3]; E. coli 664523 (OXA-48)
  MIC: ≥ 256 µg/mL
[3]; E. coli 664524 (OXA-48)
  MIC: ≥ 256 µg/mL
[3]; E. coli 664525 (OXA-48)
  MIC: ≥ 256 µg/mL
[3]; E. coli 664526 (OXA-48)
  MIC: ≥ 256 µg/mL
[3]; E. coli 664528 (OXA-48)
  MIC: ≥ 256 µg/mL
[3]; E. coli 787112 (OXA-48)
  MIC: ≥ 256 µg/mL
[3]; E. coli SI-422 (OXA-48)
  MIC: ≥ 256 µg/mL
[3]; E. coli VER (OXA-48)
  MIC: ≥ 256 µg/mL
[3]; K. pneumoniae 6299 (OXA-163)
  MIC: ≥ 256 µg/mL
[3]; K. pneumoniae 515746 (OXA-48), first line
  MIC: ≥ 256 µg/mL
[3]; K. pneumoniae 515746 (OXA-48), second line
  MIC: ≥ 256 µg/mL
[3]; K. pneumoniae 664438 (OXA-48)
  MIC: ≥ 256 µg/mL
[3]; K. pneumoniae 664439 (OXA-48)
  MIC: ≥ 256 µg/mL
[3]; K. pneumoniae 664509 (OXA-48)
  MIC: ≥ 256 µg/mL
[3]; K. pneumoniae 664518 (OXA-48)
  MIC: ≥ 256 µg/mL
[3]; K. pneumoniae 722870 (OXA-48)
  MIC: ≥ 256 µg/mL
[3]; K. pneumoniae BAH (OXA-204)
  MIC: ≥ 256 µg/mL
[3]; K. pneumoniae DEL (OXA-232)
  MIC: ≥ 256 µg/mL
[3]; K. pneumoniae DOV (OXA-48)
  MIC: ≥ 256 µg/mL
[3]; K. pneumoniae KIRK (OXA-162)
  MIC: ≥ 256 µg/mL
[3]; K. pneumoniae SI-C17 (OXA-48)
  MIC: ≥ 256 µg/mL
[4]; [6]
  MIC50: ≥ 256 µg/mL
  MIC90: ≥ 256 µg/mL
[4]; C. freundii 134390 (AmpC, TEM-1)
  MIC: ≥ 256 µg/mL
[4]; E. aerogenes 110099 (AmpC, SHV-12)
  MIC: ≥ 256 µg/mL
[4]; E. aerogenes 111707 (AmpC, TEM-1)
  MIC: ≥ 256 µg/mL
[4]; E. aerogenes 111902 (AmpC, TEM-1)
  MIC: ≥ 256 µg/mL
[4]; E. coli 128 (AmpC, SHV-12, TEM-1, Toho-2)
  MIC: 128 µg/mL (≈ 350 µM)
[4]; E. coli 3102 (AmpC, CTX-M-15, TEM-1)
  MIC: 32 µg/mL (≈ 87.6 µM)
[4]; E. coli CH1 (AmpC, CTX-M-15, SHV-1, SHV-5, TEM-1)
  MIC: ≥ 256 µg/mL
[4]; E. coli EC469 (AmpC, SHV-12, TEM-1)
  MIC: 128 µg/mL (≈ 350 µM)
[4]; E. coli J53 (AmpC, SHV-5, TEM-1)
  MIC: 128 µg/mL (≈ 350 µM)
[4]; E. coli SI-P026TC (CMY-2, TEM-1)
  MIC: ≥ 256 µg/mL
[4]; E. coli SI-PO26 (AmpC, CMY-2, TEM-1)
  MIC: ≥ 256 µg/mL
[4]; K. pneumoniae 129032 (MOX-2, SHV-12, TEM-1)
  MIC: ≥ 256 µg/mL
[4]; K. pneumoniae 178279 (AmpC, SHV-12, TEM-1)
  MIC: ≥ 256 µg/mL
[4]; K. pneumoniae 212027 (AmpC, FOX-5, TEM-1)
  MIC: ≥ 256 µg/mL
[4]; K. pneumoniae 217917 (CMY-2, TEM-1)
  MIC: ≥ 256 µg/mL
[4]; K. pneumoniae 301313 (AmpC, SHV-12, TEM-1)
  MIC: ≥ 256 µg/mL
[4]; K. pneumoniae 398845 (CMY-2, SHV-12, TEM-1)
  MIC: ≥ 256 µg/mL
[4]; K. pneumoniae SI-F100 (CMY-2, SHV-5, TEM-1)
  MIC: ≥ 256 µg/mL
[4]; P. mirabilis SI-F014 (AmpC, TEM-72)
  MIC: ≥ 256 µg/mL
[4]; S. marcescens 132253 (AmpC, CTX-M-3, OXA-1, SHV-12, TEM-1)
  MIC: ≥ 256 µg/mL
[4]; S. marcescens 134434 (AmpC, SHV-12, TEM-1)
  MIC: ≥ 256 µg/mL
[4]; S. marcescens 142397 (AmpC, SHV-7, TEM-1)
  MIC: ≥ 256 µg/mL
[4]; S. marcescens 156212 (AmpC, SHV-12, TEM-1)
  MIC: ≥ 256 µg/mL
[4]; S. marcescens 192478 (AmpC, SHV-12, TEM-1)
  MIC: ≥ 256 µg/mL
[4]; S. marcescens 218068 (AmpC, SHV-7, TEM-1)
  MIC: ≥ 256 µg/mL

## CO/N=C(\C(=O)N[C@@H]1C(=O)N2C(C(=O)O)=C(/C=C\c3scnc3C)CS[C@H]12)c1csc(N)n1 [Cefditoren, cefditoren]
[5]
  MIC50: 0.5 µg/mL (≈ 0.987 µM)
  MIC90: 2 µg/mL (≈ 3.95 µM)

## C=CC1=C(C(=O)O)N2C(=O)[C@@H](NC(=O)/C(=N\OCC(=O)O)c3csc(N)n3)[C@H]2SC1 [Cefixime, cefixime]
[5]
  MIC50: 0.5 µg/mL (≈ 1.1 µM)
  MIC90: 2 µg/mL (≈ 4.41 µM)
